# Assay results: patent EP0983294B1, “B-RING E[…] SULPHATES” (Wyeth, priority 1997, dated 1998)
# Test system: Immature rats
# Assay: In vivo uterotropic activity
# Conditions: 0.2 and 2 mg/kg for three days (S.C.)
# Procedure: Immature rats were treated with doses of 0.2 and 2 mg/kg 5,7,9-estratriene-3β,17β-diol for three days (S.C.) as well as additional groups (n=6) of rats treated with 0.5 µg ethinyl estradiol and vehicle as positive and negative controls, respectively.
compound,measurement,value
"C[C@]12CCc3c(ccc4c3CC[C@H](O)C4)[C@@H]1CC[C@@H]2O [5,7,9-estratriene-3β,17β-diol]",uterine weight,uterine weight gains at both concentrations
